Laboratory results reported in PubChem BioAssay (NCI).
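In this assay, cells in 96-well plates receive the compound at five concentrations for 48 hours. Endpoints are linearly interpolated between the surrounding concentrations. Here, GI50 denotes the concentration required for 50% inhibition of growth. TGI denotes the concentration required for complete inhibition of growth.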

Experiments:
Experiment in all cases: NCI-60 cell line screen, 48 h
[1] = system: 786-0 renal
[2] = system: A498 renal
[3] = system: A549 NSCLC
[4] = system: ACHN renal
[5] = system: BT-549 breast
[6] = system: CAKI-1 renal
[7] = system: CCRF-CEM leukemia
[8] = system: COLO 205 colon
[9] = system: DU-145 prostate
[10] = system: EKVX NSCLC
[11] = system: HCC-2998 colon
[12] = system: HCT-116 colon
[13] = system: HCT-15 colon
[14] = system: HL-60(TB) leukemia
[15] = system: HOP-62 NSCLC
[16] = system: HOP-92 NSCLC
[17] = system: HS 578T breast
[18] = system: HT29 colon
[19] = system: IGROV1 ovarian
[20] = system: K-562 leukemia
[21] = system: KM12 colon
[22] = system: LOX IMVI melanoma
[23] = system: M14 melanoma
[24] = system: MALME-3M melanoma
[25] = system: MCF7 breast
[26] = system: MDA-MB-231 breast
[27] = system: MDA-MB-435
[28] = system: MOLT-4 leukemia
[29] = system: NCI-H226 lung
[30] = system: NCI-H23 lung
[31] = system: NCI-H460 lung
[32] = system: NCI-H522 lung
[33] = system: NCI/ADR-RES ovarian
[34] = system: OVCAR-3 ovarian
[35] = system: OVCAR-4 ovarian
[36] = system: OVCAR-5 ovarian
[37] = system: OVCAR-8 ovarian
[38] = system: PC-3 prostate
[39] = system: RPMI-8226 leukemia
[40] = system: RXF 393 renal
[41] = system: SF-268 CNS
[42] = system: SF-295 CNS
[43] = system: SF-539 CNS
[44] = system: SK-MEL-2 melanoma
[45] = system: SK-MEL-28 melanoma
[46] = system: SK-MEL-5 melanoma
[47] = system: SK-OV-3 ovarian
[48] = system: SN12C renal
[49] = system: SNB-19 CNS
[50] = system: SNB-75 CNS
[51] = system: SR leukemia
[52] = system: SW-620 colon
[53] = system: T-47D breast
[54] = system: TK-10 renal
[55] = system: U251 CNS
[56] = system: UACC-257 melanoma
[57] = system: UACC-62 melanoma
[58] = system: UO-31 renal

CCOc1ccccc1C(=O)N1CCN(c2cc(Cl)cc(Cl)c2)CC1
GI50 [1]: 62.4 nM | TGI [1]: 14800 nM | GI50 [2]: 28.8 nM | TGI [2]: 4360 nM | GI50 [3]: 42.9 nM | TGI [3]: 15800 nM | GI50 [4]: 51 nM | TGI [4]: 14600 nM | GI50 [5]: 42.9 nM | TGI [5]: 4340 nM | GI50 [6]: 25.7 nM | TGI [6]: 12500 nM | GI50 [7]: 35.7 nM | TGI [7]: 33500 nM | GI50 [8]: 28.7 nM | TGI [8]: 85.3 nM | GI50 [9]: 46.8 nM | TGI [9]: 14000 nM | GI50 [10]: 58.7 nM | TGI [10]: 17300 nM | GI50 [11]: 38.1 nM | TGI [11]: 10700 nM | GI50 [12]: 32.5 nM | TGI [12]: 4020 nM | GI50 [13]: 32.2 nM | TGI [13]: 10900 nM | GI50 [14]: 25.4 nM | TGI [14]: 78 nM | GI50 [15]: 41.6 nM | TGI [15]: 15800 nM | GI50 [16]: 182 nM | TGI [16]: 12900 nM | GI50 [17]: 32.7 nM | TGI [17]: 16400 nM | GI50 [18]: 31.6 nM | TGI [18]: 2290 nM | GI50 [19]: 40.8 nM | TGI [19]: 13900 nM | GI50 [20]: 28.6 nM | TGI [20]: 25800 nM | GI50 [21]: 36.1 nM | TGI [21]: 13600 nM | GI50 [22]: 31 nM | TGI [22]: 13100 nM | GI50 [23]: 29.3 nM | TGI [23]: 1720 nM | GI50 [24]: 624 nM | TGI [24]: 22900 nM | GI50 [25]: 32.1 nM | TGI [25]: 12200 nM | GI50 [26]: 44.4 nM | TGI [26]: 12300 nM | GI50 [27]: 15.7 nM | TGI [27]: 52.7 nM | GI50 [28]: 42.4 nM | TGI [28]: 21000 nM | GI50 [29]: 839 nM | TGI [29]: 6550 nM | GI50 [30]: 49.1 nM | TGI [30]: 9460 nM | GI50 [31]: 36.2 nM | TGI [31]: 11900 nM | GI50 [32]: 14.2 nM | TGI [32]: 358 nM | GI50 [33]: 23.1 nM | TGI [33]: 5640 nM | GI50 [34]: 39.1 nM | TGI [34]: 12400 nM | GI50 [35]: 266 nM | TGI [35]: 18500 nM | GI50 [36]: 55.2 nM | TGI [36]: 16200 nM | GI50 [37]: 37.1 nM | TGI [37]: 14200 nM | GI50 [38]: 34.6 nM | TGI [38]: 12600 nM | GI50 [39]: 36.9 nM | TGI [39]: 5320 nM | GI50 [40]: 17.5 nM | TGI [40]: 1060 nM | GI50 [41]: 112 nM | TGI [41]: 18700 nM | GI50 [42]: 25.2 nM | TGI [42]: 779 nM | GI50 [43]: 25.2 nM | TGI [43]: 412 nM | GI50 [44]: 1130 nM | TGI [44]: 18400 nM | GI50 [45]: 3550 nM | TGI [45]: 22200 nM | GI50 [46]: 34.5 nM | TGI [46]: 177 nM | GI50 [47]: 258 nM | TGI [47]: 9140 nM | GI50 [48]: 49.3 nM | TGI [48]: 14700 nM | GI50 [49]: 43.2 nM | TGI [49]: 15800 nM | GI50 [50]: 474 nM | TGI [50]: 14300 nM | GI50 [51]: 33.5 nM | TGI [51]: 22000 nM | GI50 [52]: 41.5 nM | TGI [52]: 15800 nM | GI50 [53]: 393 nM | TGI [53]: 29900 nM | GI50 [54]: 9160 nM | TGI [54]: 24000 nM | GI50 [55]: 40.7 nM | TGI [55]: 14300 nM | GI50 [56]: 4190 nM | TGI [56]: 25800 nM | GI50 [57]: 20.3 nM | TGI [57]: 16000 nM | GI50 [58]: 97.8 nM | TGI [58]: 16000 nM

O=C1OCC2=C1C(c1ccc(Cl)c(Cl)c1)c1cc3c(cc1N2CCO)OCCO3 (configuration not stated)
GI50 [1]: 277 nM | TGI [1]: 7620 nM | GI50 [2]: 147 nM | TGI [2]: 1840 nM | GI50 [3]: 299 nM | TGI [3]: 11800 nM | GI50 [4]: 334 nM | TGI [4]: 44900 nM | GI50 [5]: 583 nM | TGI [5]: 15500 nM | GI50 [6]: 277 nM | TGI [6]: > 35500 nM | GI50 [7]: 184 nM | TGI [7]: 16700 nM | GI50 [8]: 210 nM | TGI [8]: 1140 nM | GI50 [9]: 211 nM | TGI [9]: 6530 nM | GI50 [10]: 1230 nM | TGI [10]: > 38600 nM | GI50 [11]: 503 nM | TGI [11]: 4330 nM | GI50 [12]: 213 nM | TGI [12]: 8780 nM | GI50 [13]: 245 nM | TGI [13]: > 50000 nM | GI50 [14]: 135 nM | TGI [14]: 587 nM | GI50 [15]: 295 nM | TGI [15]: 15100 nM | GI50 [16]: 236 nM | TGI [16]: 8200 nM | GI50 [17]: 273 nM | TGI [17]: > 37600 nM | GI50 [18]: 148 nM | TGI [18]: 502 nM | GI50 [19]: 542 nM | TGI [19]: > 33000 nM | GI50 [20]: 211 nM | TGI [20]: > 22600 nM | GI50 [21]: 172 nM | TGI [21]: 7580 nM | GI50 [22]: 316 nM | TGI [22]: 10800 nM | GI50 [23]: 264 nM | TGI [23]: 5650 nM | GI50 [24]: 249 nM | TGI [24]: 25800 nM | GI50 [25]: 208 nM | TGI [25]: > 50000 nM | GI50 [26]: 833 nM | TGI [26]: 7590 nM | GI50 [27]: 102 nM | TGI [27]: 468 nM | GI50 [28]: 456 nM | TGI [28]: > 42300 nM | GI50 [29]: 290 nM | TGI [29]: 7710 nM | GI50 [30]: 279 nM | TGI [30]: 21700 nM | GI50 [31]: 192 nM | TGI [31]: 5770 nM | GI50 [32]: 85.2 nM | TGI [32]: 283 nM | GI50 [33]: 239 nM | TGI [33]: 3000 nM | GI50 [34]: 127 nM | TGI [34]: 351 nM | GI50 [35]: 382 nM | TGI [35]: > 50000 nM | GI50 [36]: 736 nM | TGI [36]: > 33200 nM | GI50 [37]: 389 nM | TGI [37]: 7240 nM | GI50 [38]: 189 nM | TGI [38]: 8660 nM | GI50 [39]: 405 nM | TGI [39]: 12900 nM | GI50 [40]: 116 nM | TGI [40]: 751 nM | GI50 [41]: 261 nM | TGI [41]: 11600 nM | GI50 [42]: 151 nM | TGI [42]: 2840 nM | GI50 [43]: 177 nM | TGI [43]: 1740 nM | GI50 [44]: 137 nM | TGI [44]: 1110 nM | GI50 [45]: 412 nM | TGI [45]: > 38600 nM | GI50 [46]: 148 nM | TGI [46]: 6370 nM | GI50 [47]: 215 nM | TGI [47]: 2320 nM | GI50 [48]: 688 nM | TGI [48]: 20000 nM | GI50 [49]: 327 nM | TGI [49]: > 50000 nM | GI50 [50]: 128 nM | TGI [50]: 9200 nM | GI50 [51]: 187 nM | TGI [51]: 21700 nM | GI50 [52]: 160 nM | TGI [52]: > 50000 nM | GI50 [53]: 282 nM | TGI [53]: > 50000 nM | GI50 [54]: 513 nM | TGI [54]: 20000 nM | GI50 [55]: 206 nM | TGI [55]: 12700 nM | GI50 [56]: 181 nM | TGI [56]: 19400 nM | GI50 [57]: 192 nM | TGI [57]: 10800 nM | GI50 [58]: 256 nM | TGI [58]: 30600 nM
